Values of other authors in patent publication US20100203024A1 (priority 2006, published 2010).

Tested on: non-small-cell lung cancer
Conditions: patients with refractory disease

C#Cc1cccc(Nc2ncnc3cc(OCCOC)c(OCCOC)cc23)c1 [erlotinib]
partial responses, percent of patients: 9%
